The values below come from patent US11174245B2, “Benzimidazole compounds and derivatives as EGFR inhibitors” (Boehringer Ingelheim International GmbH, priority 2018, dated 2021).

This assay deals with EGFR del19 T790M C797S protein in Ba/F3 cells (Homo sapiens, UniProt P00533, C797S/DEL746-750/T790M). Kind of assay: pEGFR assay (AlphaScreen Surefire, EGFR Tyr1068 phosphorylation). The format is cell-based. As to the method: Transduced cells were selected using puromycin. Following selection, IL-3 was withdrawn and IL-3 independent cells cultured. p-EGFR Tyr1068 was determined using the AlphaScreen Surefire pEGF Receptor (Tyr1068) Assay (PerkinElmer, TGRERS). […] Subsequently, 60.000 cells/well in 60 μL were added. Cells were incubated with compound for 4 h at 37° C. […] The mixture was incubated at room temperature with shaking (700 rpm) for 20 min. After centrifugation, 4 μL of the lysate were transferred to Proxiplates. […] Plates were shaken for 1 min (1400 rpm) and incubated for 2 h at room temperature in the dark.
Chain of EGFR del19 T790M C797S protein in Ba/F3 cells (P00533 with tags, fused parts or gaps C797S/DEL746-750/T790M limits assumed): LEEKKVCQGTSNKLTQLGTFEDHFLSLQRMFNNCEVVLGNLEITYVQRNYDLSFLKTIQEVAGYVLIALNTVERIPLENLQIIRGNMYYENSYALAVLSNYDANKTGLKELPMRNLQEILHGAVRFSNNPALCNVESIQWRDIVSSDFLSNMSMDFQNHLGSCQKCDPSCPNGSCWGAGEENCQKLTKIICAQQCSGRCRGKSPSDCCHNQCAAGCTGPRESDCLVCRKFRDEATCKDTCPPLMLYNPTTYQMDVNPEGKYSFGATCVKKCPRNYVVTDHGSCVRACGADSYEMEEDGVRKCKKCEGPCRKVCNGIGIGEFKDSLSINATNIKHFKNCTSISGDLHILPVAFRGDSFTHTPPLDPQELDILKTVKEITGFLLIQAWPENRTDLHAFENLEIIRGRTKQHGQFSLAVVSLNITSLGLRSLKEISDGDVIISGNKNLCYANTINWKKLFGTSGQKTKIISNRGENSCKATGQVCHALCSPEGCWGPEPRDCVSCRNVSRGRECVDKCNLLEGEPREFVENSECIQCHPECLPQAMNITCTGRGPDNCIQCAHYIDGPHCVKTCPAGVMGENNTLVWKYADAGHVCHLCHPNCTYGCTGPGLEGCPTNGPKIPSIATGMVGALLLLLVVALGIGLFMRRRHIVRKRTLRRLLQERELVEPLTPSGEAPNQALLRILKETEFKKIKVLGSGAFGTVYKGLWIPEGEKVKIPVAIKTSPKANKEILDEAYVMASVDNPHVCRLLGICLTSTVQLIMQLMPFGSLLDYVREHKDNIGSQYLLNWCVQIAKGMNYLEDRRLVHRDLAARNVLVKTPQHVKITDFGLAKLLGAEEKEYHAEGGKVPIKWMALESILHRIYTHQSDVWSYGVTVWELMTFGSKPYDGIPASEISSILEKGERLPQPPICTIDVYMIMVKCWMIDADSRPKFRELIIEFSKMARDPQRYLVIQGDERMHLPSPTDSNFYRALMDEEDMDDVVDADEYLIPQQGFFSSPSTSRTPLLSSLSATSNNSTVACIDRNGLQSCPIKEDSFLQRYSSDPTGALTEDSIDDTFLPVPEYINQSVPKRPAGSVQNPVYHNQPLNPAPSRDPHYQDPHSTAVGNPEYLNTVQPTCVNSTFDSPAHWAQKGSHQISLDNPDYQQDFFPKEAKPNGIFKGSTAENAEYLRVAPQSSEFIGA
The results of the assay are provided as IC50 values (see table 12).
On the technique in general: Bead proximity is the source of the signal in Alpha formats.

Usually IC50 stands for the concentration at which inhibition is half-maximal. The low end stands for higher potency, the high end for lower potency.

As for `Cn1cc(-c2cc(C(=O)/N=c3\[nH]c4ccccc4n3[C@H]3COCC[C@@H]3O)ccn2)cn1` [I-190], the IC50 is 33 nM. In other words, the double-digit nanomolar range. As for `O=C(/N=c1\[nH]c2ccccc2n1[C@H]1CC[C@@H](O)CC1)c1ccnc(-c2coc3ccccc23)c1` [I-174], it took 9 nM to reach half-maximal inhibition (IC50). Turning to `COc1ccccc1-c1cc(C(=O)/N=c2\[nH]c3ccccc3n2[C@@H]2CC[C@@H](O)[C@@H](O)C2)ccn1` [I-234], the IC50 came to 4 nM. The same measure for `COc1ccccc1-c1cc(C(=O)/N=c2\[nH]c3ccccc3n2[C@H]2CCC[C@H](O)C2)ccn1` [I-170]: 8 nM; for `Cn1cc(-c2cc(C(=O)/N=c3\[nH]c4cc(C5CCCCO5)ccc4n3CC(C)(C)O)ccn2)cn1` (stereo not shown) [I-165]: 7 nM; for `COc1ccccc1-c1cc(C(=O)/N=c2\[nH]c3ccccc3n2[C@H]2CCC[C@@H](O)C2)ccn1` [I-127]: 2 nM.

`Cn1cc(-c2cc(C(=O)/N=c3\[nH]c4ccccc4n3C3CCOCC3)ccn2)cn1` [I-049] yielded an IC50 of 7 nM. The value for `Cn1cc(-c2cc(C(=O)/N=c3\[nH]c4cc(F)ccc4n3CC(C)(C)O)ccn2)cn1` [I-194] was 74 nM.

Compound `CCc1ccc2c(c1)[nH]/c(=N\C(=O)c1ccnc(-c3cnn(C)c3)c1)n2CC(C)(C)O` [I-061] had an IC50 of 7 nM.

For the compound `COc1ncccc1-c1cc(C(=O)/N=c2\[nH]c3ccccc3n2[C@H]2CC[C@@H](O)CC2)ccn1` [I-173], the IC50 turned out to be 9 nM. The value for `O=C(/N=c1\[nH]c2ccccc2n1[C@H]1CC[C@@H](O)CC1)c1ccnc(-c2ccccc2OC(F)(F)F)c1` [I-187] was 24 nM. Compound `COc1ccccc1-c1cc(C(=O)/N=c2\[nH]c3ccccc3n2[C@@H]2CCCC[C@H]2O)ccn1` [I-132] yielded an IC50 of 7 nM. The value for `Cn1cc(-c2cc(C(=O)/N=c3\[nH]c4cc(CN5CCCCC5)ccc4n3CC(C)(C)O)ccn2)cn1` [I-057] was 27 nM; that for `Cc1cc2c(cc1N1CCN(C(C)C)CC1)[nH]/c(=N\C(=O)c1ccnc(-c3cnn(C)c3)c1)n2CC(C)(C)O` [I-69] was 26 nM; that for `Cn1cnc2c(-c3cc(C(=O)/N=c4\[nH]c5ccccc5n4[C@H]4CC[C@@H](O)CC4)ccn3)cccc21` [I-182] was 15 nM. The value for `O=C(/N=c1\[nH]c2ccccc2n1[C@H]1CC[C@@H](O)CC1)c1ccnc(-c2ccc(F)cc2)c1` [I-177] was 12 nM. `Cn1cc(-c2cc(C(=O)/N=c3\[nH]c4ccccc4n3C3CCCOC3)ccn2)cn1` (stereo not shown) [I-043]: it took 6 nM to reach half-maximal inhibition (IC50). `COc1ccccc1-c1cc(C(=O)/N=c2\[nH]c3cc(C4CCN(C)CC4)ccc3n2[C@H]2CC[C@@H](O)CC2)ccn1` [I-124] displayed an IC50 of 2 nM. Regarding `O=C(/N=c1\[nH]c2ccccc2n1[C@H]1CC[C@@H](O)CC1)c1ccnc(-c2ccccc2Cl)c1` [I-160], the 50% inhibitory concentration (IC50) turned out to be 6 nM. Compared with the last compound, the IC50 is about 3-fold higher. `O=C(/N=c1\[nH]c2ccccc2n1[C@H]1CC[C@@H](O)CC1)c1ccnc(-n2ccc3cccnc32)c1` [I-150]: the IC50 worked out at 4 nM. The value for `Cn1cc(-c2cc(C(=O)/N=c3\[nH]c4cc(C5CCOC5)ccc4n3CC(C)(C)O)ccn2)cn1` (stereo not shown) [I-86] was 5 nM; that for `COc1ccccc1-c1cc(C(=O)/N=c2\[nH]c3cc(C4CCNCC4)ccc3n2[C@H]2CC[C@@H](O)CC2)ccn1` [I-120] was 3 nM; that for `CC(C)c1ccc2c(c1)[nH]/c(=N\C(=O)c1ccnc(-c3cnn(C)c3)c1)n2CC(C)(C)O` [I-062] was 9 nM.

Regarding `Cn1cc(-c2cc(C(=O)/N=c3\[nH]c4cc(NCC5CCOCC5)ccc4n3CC(C)(C)O)ccn2)cn1` [I-68], the IC50 was found to be 14 nM. This IC50 lies about 1.6-fold higher than the previous one.

In turn, `COc1ccccc1-c1cc(C(=O)/N=c2\[nH]c3cc(CN4CCOCC4)ccc3n2[C@H]2CC[C@@H](O)CC2)ccn1` [I-142] yielded an IC50 of 3 nM. This IC50 is about 4.7-fold lower than that of the compound before. The same measure for `COCCN1CCC(c2ccc3c(c2)[nH]/c(=N\C(=O)c2ccnc(-c4cnn(C)c4)c2)n3CC(C)(C)O)CC1` [I-047]: 3 nM.

`Cn1cc(-c2cc(C(=O)/N=c3\[nH]c4ccc(F)cc4n3CC(C)(C)O)ccn2)cn1` [I-195]: the IC50 was 85 nM. With `Cn1cc(-c2cc(C(=O)/N=c3\[nH]c4cc(C5CCOCC5)ccc4n3CC(C)(C)O)ccn2)cn1` [I-85], the IC50 was 3 nM. The same measure for `Cc1ccc2c(c1)[nH]/c(=N\C(=O)c1ccnc(-c3cnn(C)c3)c1)n2[C@H]1CC[C@@H](O)CC1` [I-134]: 1 nM; for `COc1ccccc1-c1cc(C(=O)/N=c2\[nH]c3ccccc3n2[C@@H]2CCC[C@@H](O)C2)ccn1` [I-139]: 2 nM. The value for `COc1ncccc1-c1cc(C(=O)/N=c2\[nH]c3ccccc3n2CC(C)(C)O)ccn1` [I-92] was 20 nM. The same measure for `COc1ccccc1-c1cc(C(=O)/N=c2\[nH]c3cc(CN4CC[C@@H](OC)C4)ccc3n2[C@H]2CC[C@@H](O)CC2)ccn1` [I-159]: 6 nM; for `CCOC(=O)CCc1ccc2c(c1)[nH]/c(=N\C(=O)c1ccnc(-c3cnn(C)c3)c1)n2CC(C)(C)O` [I-193]: 68 nM. As to `COc1cnccc1-c1cc(C(=O)/N=c2\[nH]c3ccccc3n2CC(C)(C)O)ccn1` [I-164], the IC50 was determined as 7 nM. This IC50 is about 9.7-fold lower than that of the compound before. The value for `CN(C)C1CCN(c2ccc3c(c2)[nH]/c(=N\C(=O)c2ccnc(-c4cnn(C)c4)c2)n3CC(C)(C)O)C1` (stereo not shown) [I-80] was 89 nM. The compound `COc1cccc(-c2cc(C(=O)/N=c3\[nH]c4ccccc4n3CC(C)(C)O)ccn2)c1` [I-99] returned a concentration for half-maximal inhibition (IC50) of 42 nM. The same measure for `Cn1cc(-c2cc(C(=O)/N=c3\[nH]c4cc(NC[C@@H]5CCCO5)ccc4n3CC(C)(C)O)ccn2)cn1` [I-81]: 9 nM; for `Cc1c(-c2cc(C(=O)/N=c3\[nH]c4ccccc4n3C3CCCCC3)ccn2)cnn1C` [I-044]: 2 nM.

`Cn1cc(-c2cc(C(=O)/N=c3\[nH]c4cc(CCC(C)(C)O)ccc4n3CC(C)(C)O)ccn2)cn1` [I-178] gave an IC50 of 12 nM. As for `CC(C)(O)Cn1/c(=N/C(=O)c2ccnc(-n3cnc4cccnc43)c2)[nH]c2ccccc21` [I-040], the midpoint of inhibition, the IC50, lay at 3 nM. `Cn1cc(-c2cc(C(=O)/N=c3\[nH]c4cc(N5CCC6(CCOCC6)CC5)ccc4n3CC(C)(C)O)ccn2)cn1` [I-74] displayed an IC50 of 71 nM. Compared with the last compound, the IC50 is about 24-fold higher. The compound `Cn1cc(-c2cc(C(=O)/N=c3\[nH]c4cc(N5CCOC(C)(C)C5)ccc4n3CC(C)(C)O)ccn2)cn1` [I-75] had an IC50 of 54 nM. The IC50 values of the last two compounds are within 1.5-fold of each other. The value for `CC(C)(O)Cn1/c(=N/C(=O)c2ccnc(-n3ccc4cccnc43)c2)[nH]c2ccccc21` [I-188] was 30 nM. The same measure for `COc1ccccc1-c1cc(C(=O)/N=c2\[nH]c3cc(CN4CC(OC)C4)ccc3n2[C@H]2CC[C@@H](O)CC2)ccn1` [I-140]: 2 nM; for `CN(C)Cc1cccc(-c2cc(C(=O)/N=c3\[nH]c4ccccc4n3C3CCCCC3)ccn2)c1` [I-117]: 12 nM.

The compound `Cn1cc(-c2cc(C(=O)/N=c3\[nH]c4cc(CN5CCOCC5)ccc4n3CC(C)(C)O)ccn2)cn1` [I-058] registered an IC50 of 93 nM.

As to `Cn1cc(-c2cc(C(=O)/N=c3\[nH]c4cc(C(C)(C)O)ccc4n3CC(C)(C)O)ccn2)cn1` [I-063], the IC50 was 74 nM. Consider `O=C(/N=c1\[nH]c2ccccc2n1[C@H]1CC[C@@H](O)CC1)c1ccnc(-c2csc3ccccc23)c1` [I-96], for which the IC50 was 39 nM. The compound `Cn1cc(-c2cc(C(=O)/N=c3\[nH]c4cc(NCCN5CCCC5)ccc4n3CC(C)(C)O)ccn2)cn1` [I-83] showed an IC50 of 14 nM.
